What was measured:
[1] = test system: α-/β-tubulins in HeLa cells; experiment: Western blot of polymerized and dissociated α-/β-tubulins, HeLa; format: cell-based, human; conditions: 24 h, versus control; for expression of dissociated state α and β microtubule proteins: 3k 4 μM, colchicine 2 μM, paclitaxel 2.0 μM; for expression of α and β microtubule proteins in the polymerized state: 3k 2 and 4 μM, colchicine and paclitaxel 2.0 μM
Method: (§1) HeLa cells were cultured in 60 mm Petri dishes at a density of 1.0 × 10^6 cells per dish and treated with 0.1% DMSO (vehicle), positive control chalcone (20 μM), and different concentrations of compound 3k (2.5, 5, and 10 μM), respectively. Following a 24 and 48 h incubation period, the cells were harvested via centrifugation and subsequently washed twice with PBS that had been chilled to 0 °C. Next, the cells were homogenized using RIPA lysis buffer (Solarbio, Beijing, China) and supplemented with 1% PMSF (MP Biomedicals, 0754-25G, CAS:329-98-6, Santa Ana, CA, USA) and 1% mixed phosphatase inhibitor (Solarbio, Beijing, China). The resulting lysates were then incubated on ice for 30 min, intermittently vortexed every 5 min, and subsequently centrifuged at 12,000 rpm for 20 min to collect the supernatants.
(§2) Subsequently, the protein concentrations were determined utilizing a BCA Protein Assay Kit (Solarbio, China). An equivalent quantity of the proteins (12 μg) was fractionated via 8–12% sodium dodecyl sulfate–polyacrylamide gel electrophoresis (SDS-PAGE) and transferred onto nitrocellulose membranes (Amersham Biosciences, Amersham, UK). Following this, the membranes were obstructed with 5% nonfat dried milk in TBS containing 1% Tween-20 for a duration of 2 h at ambient temperature and were subjected to overnight incubation with specific primary antibodies (CST, Boston, MA, USA) at 4 °C. Following three washes in TBST, the membranes were subjected to incubation with the suitable HRP-conjugated secondary antibodies at ambient temperature for a duration of 2 h. The blots were subsequently visualized using enhanced chemiluminescence (Biosharp, Shanghai, China) and detected utilizing a PE 0723 imager (ProteinSimple, Silicon Valley, CA, USA). Each experiment was conducted in triplicate at minimum and analyzed employing Image J software (V1.8.0.112). β-actin(ab198991) rabbit mAb, goat anti-rabbit IgG (H + L) HRP—#S0001 (Affinity). Bax (ab289364), Bcl-2 (ab218123), MDR1/ABCB1 (E1Y7B) rabbit mAb #13342 (CST).
(§3) Polymerized and free microtubule proteins were extracted using the methods described in references, respectively. Following drug intervention, the cells were subjected to two washes with preheated microtubule protein buffer MTSB at 37 °C. Subsequently, 70 μL of MTSB was added, and the cells were lysed for 10 min at 37 °C in a constant temperature chamber shielded from light. The cells were then scraped with a spatula and centrifuged at 14,000 r/min for 10 min at room temperature. The resulting supernatant, which represented the free state microtubule protein suspension, was subsequently removed. The remaining precipitate was treated with RIPA lysis solution, followed by lysis on ice for a duration of 30 min. Subsequently, centrifugation was performed at a temperature of 4 °C and a speed of 12,000 revolutions per minute for a duration of 20 min. The resulting supernatant was collected as a suspension of polymerized microtubule protein. The Western blotting procedure was the same as in Section 3.3.4. α-Tubulin (DM1A) Mouse mAb#3873 (CST), β-Tubulin (D2N5G) Rabbit mAb #15115 (CST), CoraLite488-conjugated Goat Anti-Mouse lgG(H+L) (Proteintech); CoraLite488-conjugated Goat Anti-Rabbit lgG(H+L) (Proteintech); β-actin(ab198991) rabbit mAb, Goat Anti-Mouse IgG H&L (HRP) (ab6789); Goat anti-Rabbit IgG (H+L) HRP—#S0001 (Affinity).

[2] = test system: α-tubulin, β-tubulin in HeLa/DDP cells; experiment: Immunofluorescence assay of microtubules, HeLa/DDP; format: cell-based, human; conditions: 24 h, 3k 1, 2, and 4 μM, paclitaxel 2.0 μM
Method: (§4) The cells were then fixed by adding 400 μL of 4% paraformaldehyde to each well and incubating for 30 min. 0.1% Triton was added at a volume of 400 μL per well and allowed to incubate for 10 min. Following this, goat serum (10%) was added at 400 μL per well and incubated for 40 min. Primary antibodies (α-tubulin, β-tubulin) were then incubated overnight at a temperature of 4 °C. Subsequently, secondary antibodies (α-mouse, β-rabbit) were incubated for 1.5 h. DAPI staining was performed at 400 μL per well for 5 min, followed by a wash with PBS. Cell climbing tablets were removed and inverted onto slides with sealer. Photographs were captured using a fluorescent inverted microscope.

HeLa cells [3] = experiment: MTT anti-proliferation assay, HeLa; format: cell-based, human; conditions: Homo sapiens, 48 h, mean ± SD
Method: All cell types, at a volume of 200 µL per well, were inoculated in 96-well plates at a density of 2.5 × 10^4 cells / mL and cultured for 24 h in an incubator with 5% CO2 at 37 °C. The old culture medium was replaced with 200 µL of fresh medium per well containing positive compounds, at concentrations of 1, 6.25, 12.5, 25, 50, and 100 μM. After 48 h of culture, 20 µL per well of 5 mg·mL^−1 MTT solution was added. After 4 h of culture, the old solution was discarded, and 150 µL per well of DMSO solution was added. Using an enzyme labeler (Thermo Fisher Scientific, Multiskan GO, Waltham, MA, USA), the plates were shaken for 10 min, OD values were determined at 490 nm, and the inhibition rate was calculated. Non-linear regression fitting of the cell growth rate was carried out using SPSS 23.0, and the IC50 of the compound was calculated. The inhibition rate was calculated using the formula: [(ODempty − ODtest)/(ODempty − ODnegative group)] × 100%, (ODempty blank group absorbance, ODtest absorbance of administration group, ODnegative group without cell culture medium). Each group contained six compound holes, and the experimental results averaged three trials. Complete medium containing only cells was used as the blank control; a complete medium without cells as was used as the negative control; and cisplatin, paclitaxel, and adriamycin were used as the positive controls. The concentration gradient was the same as that used for compounds 3a–3p. […]

HeLa/DDP cells [4] = experiment: MTT anti-cisplatin-resistant cervical cancer activity, HeLa/DDP; format: cell-based, human; conditions: 48 h; for resistance index (RI): HeLa/DDP versus parental HeLa; for IC50: Homo sapiens, HeLa/DDP, MTT, mean ± SD
Method: (§5) All cell types, at a volume of 200 µL per well, were inoculated in 96-well plates at a density of 2.5 × 10^4 cells / mL and cultured for 24 h in an incubator with 5% CO2 at 37 °C. The old culture medium was replaced with 200 µL of fresh medium per well containing positive compounds, at concentrations of 1, 6.25, 12.5, 25, 50, and 100 μM. After 48 h of culture, 20 µL per well of 5 mg·mL^−1 MTT solution was added. After 4 h of culture, the old solution was discarded, and 150 µL per well of DMSO solution was added. Using an enzyme labeler (Thermo Fisher Scientific, Multiskan GO, Waltham, MA, USA), the plates were shaken for 10 min, OD values were determined at 490 nm, and the inhibition rate was calculated. Non-linear regression fitting of the cell growth rate was carried out using SPSS 23.0, and the IC50 of the compound was calculated. The inhibition rate was calculated using the formula: [(ODempty − ODtest)/(ODempty − ODnegative group)] × 100%, (ODempty blank group absorbance, ODtest absorbance of administration group, ODnegative group without cell culture medium). Each group contained six compound holes, and the experimental results averaged three trials. Complete medium containing only cells was used as the blank control; a complete medium without cells as was used as the negative control; and cisplatin, paclitaxel, and adriamycin were used as the positive controls. The concentration gradient was the same as that used for compounds 3a–3p.
To mitigate the detrimental consequences arising from the fixation of resistance reversal agents, concentrations that yielded a tumor cell proliferation rate reduction of less than 10% were selected. Consequently, the inhibitory efficacy of compound 3k against HeLa/DDP cells was assessed in conjunction with cisplatin at concentrations of 0.25, 0.5, and 1 μM. The experimental procedure employed was akin to that elucidated in Section 3.3.2. The impact of verapamil (6 μM) and 3k (0.25, 0.5, and 1 μM) on P-gp expression was ascertained via Western blot experiments, employing the same methodology delineated in Section 3.3.4.

[5] = test system: α-/β-tubulins in HeLa/DDP cells; experiment: Western blot of polymerized and dissociated α-/β-tubulins, HeLa/DDP; format: cell-based, human; conditions: 24 h, versus control; for expression of dissociated state α and β microtubule proteins: 3k 4 μM, colchicine and paclitaxel 2.0 μM; for expression of polymerized state α and β microtubule proteins: positive drugs 2.0 μM
Method: as §1, §2, §3

[6] = test system: α-tubulin, β-tubulin in HeLa cells; experiment: Immunofluorescence assay of microtubules, HeLa; format: cell-based, human; conditions: 24 h, 3k 1, 2, and 4 μM, colchicine and paclitaxel 2.0 μM
Method: as §4

HeLa/DDP cells [7] = experiment: Transwell migration assay, HeLa/DDP; format: cell-based, human; conditions: 24 h, 20 μM, control 497
Method: (§6) HeLa (5 × 10^4 cells) was suspended in 200 μL of FBS-free medium. The top chamber contained the vehicle and various concentrations of compound 3k (2.5, 5, and 10 μM), cisplatin (20 μM) and chalcone (20 μM). The lower chamber was filled with 600 μL of medium containing 10% FBS. After incubating at 37 °C for 24 h, the cells on the top side of the Transwell membrane were removed with a cotton tip. Cells were fixed and stained with 4% paraformaldehyde (LEAGENE BIOTECHNOLOGY, Cat:DF0135, Lot:0823A23, Zhongguancun, Haidian District, Beijing, China) and 0.1% crystal violet solutions (Leagene Biotechnology, Cat:DZ0055, Lot:0508A23, Zhongguancun, Haidian District, Beijing, China) for 30 min to fix cells trapped on the perforated side of the membrane.
(§7) The experimental methods for the effects of compound 3k, cisplatin, and chalcone on HeLa/DDP cell invasion and migration were the same as in Section 3.3.6.

HeLa cells [8] = experiment: Transwell migration assay, HeLa; format: cell-based, human; conditions: 24 h, 20 μM, control 1176
Method: as §6

HeLa/DDP cells [9] = experiment: Annexin V-FITC/PI pro-apoptosis assay, HeLa/DDP; format: cell-based, human; conditions: 24 h, 20 μM
Method: Cell fluid (2 mL per well) at a concentration of 1.5 × 10^5 cells / mL was added to a 6-well plate and cultured in a cell incubator with 5% CO2 at 37 °C for 24 h. The old solution was discarded; 2 mL of the medium containing compound 3k was added to each well at a concentration gradient of 2.5, 5, and 10 μM; and the experiment was repeated three times at each concentration. Complete medium containing only cells was used as a blank control group, and 20 μM of cisplatin injection and chalcone was used as a positive control. Cells were harvested following a 24 h incubation period, adhering to the guidelines provided with the BD kit (BD Biosciences Pharmingen, 556547, 10975 Torreyana Road, San Diego, CA, USA). Subsequently, the cells were subjected to staining in a light-restricted environment at ambient temperature for a duration of 15 min, followed by filtration and analysis via flow cytometry.
The pro-apoptotic experiments of compound 3k, cisplatin, and chalcone on HeLa/DDP were performed in the same way as in Section 3.3.3. Western Blotting Analysis in the same way as in Section 3.3.4.

C33A cells = experiment: MTT anti-proliferation assay, C33A; format: cell-based, human; conditions: Homo sapiens, C-33-A, 48 h, mean ± SD
Method: as §5

HeLa/DDP cells [10] = experiment: Transwell Matrigel invasion assay, HeLa/DDP; format: cell-based, human; conditions: 24 h, 20 μM, control 399
Method: (§8) The Transwell ([…], Corning Incorporated, New York, NY, USA) was precoated using 50 μL Matrigel for 5 h at 37 °C to achieve solidification. HeLa cells was collected and suspended in a serum-free medium containing varying concentrations (0, 2.5, 5, and 10 μM) of compound 3k, along with 20 μM cisplatin and chalcone. These cell suspensions were then added to the upper wells of a permeabilization chamber at a density of 5 × 10^5 cells/mL. In the lower wells, 600 μL of DMEM containing 10% FBS was added, which had been prepared using 50 μL of Matrigel (diluted 1:8 with serum-free medium from Corning/BD Biosciences). After 24 h of incubation at 37 °C, the invasion cells were fixed using 4% paraformaldehyde and stained using 0.1% crystal violet for 30 min. Then, the chambers were washed using PBS and left to dry. Images were photographed using an inverted fluorescence microscope (Leica Instruments Co., Ltd., Microsystems CMS GmbH, Weizler, Hesse, Germany) and counted using Image J software (V1.8.0.112) for three independent fields randomly.
as §7

[11] = test system: human cervical epithelial cells H8; experiment: MTT toxicity assay, normal cervical epithelial cells H8; format: cell-based; conditions: Homo sapiens, Epithelial cell, 48 h, mean ± SD
Method: as §5

SiHa cells = experiment: MTT anti-proliferation assay, SiHa; format: cell-based, human; conditions: Homo sapiens, 48 h, mean ± SD
Method: as §5

HeLa cells [12] = experiment: Transwell Matrigel invasion assay, HeLa; format: cell-based, human; conditions: 24 h, 20 μM
Method: as §8

Row | Structure (SMILES) | expression of dissociated state α and β microtubule proteins [1] | expression of α and β microtubule proteins in the polymerized state [1] | microtubule immunofluorescence (α green, β red) [2] | IC50 (HeLa cells [3]) | resistance index (RI) (HeLa/DDP cells [4]) | IC50 (HeLa/DDP cells [4]) | expression of dissociated state α and β microtubule proteins [5] | expression of polymerized state α and β microtubule proteins [5] | microtubule immunofluorescence (α green, β red) [6] | number of migrated cells (HeLa/DDP cells [7]) | number of migrated cells (HeLa cells [8]) | pro-apoptotic rate (HeLa/DDP cells [9]) | IC50 (C33A cells) | number of invasion cells (HeLa/DDP cells [10]) | IC50 [11] | IC50 (SiHa cells) | number of cells undergoing invasion (HeLa cells [12])
1 | CC(=O)O[C@H]1C(=O)[C@@]2(C)[C@H]([C@H](OC(=O)c3ccccc3)[C@]3(O)C[C@H](OC(=O)[C@H](O)[C@@H](NC(=O)c4ccccc4)c4ccccc4)C(C)=C1C3(C)C)[C@]1(OC(C)=O)CO[C@@H]1C[C@@H]2O [Paclitaxel, paclitaxel] | significantly decreased | significantly enhanced | no significant alteration in the fluorescence intensity of the microtubules surrounding the cells | 23 ± 1.33 µM | 5.66 | 130 ± 5.84 µM | minimal impact | did not yield a significant impact | fluorescence intensity of microtubules surrounding the cells decreased or vanished | – | – | – | – | – | – | – | –
2 | O=C(/C=C/c1ccccc1)c1ccccc1 [Chalcone, (E)-chalcone] | – | – | – | 67 ± 4.56 µM | 1.31 | 88 ± 7.27 µM | – | – | – | 319 | 689 | 13.8% | 37.5 ± 1.5 µM | 347 | 78.5 ± 7.78 µM | 62 ± 1.84 µM | 422
3 | COc1cc2c(c(OC)c1OC)-c1ccc(OC)c(=O)cc1[C@@H](NC(C)=O)CC2 [colchicine] | significantly increased | decrease | – | – | – | – | increase | significant decrease | – | – | – | – | – | – | – | – | –
